{"source": "patent US9233161B2", "about": "“Compositions and methods for the treatment of neurological conditions” (CELLIX BIO PRIVATE LIMITED, priority 2012, dated 2016)", "system": "Rat Model of Neuropathic Pain", "test": "Mechanic pain test (Randall-Sellitio method) in a rat model of neuropathic pain (loose ligation of the right sciatic nerve)", "format": "in vivo", "conditions": "i.p., 40, 60 mg/kg equivalent of milnacipran, 15 days after surgery, tested for 2 h every 30 min, compared with milnacipran", "experimental": "The Effect of Milnacipran and Formula I (1-1) on Nociception in a Rat Model of Neuropathic Pain\nAfter the preoperative pain thresholds of rats determined by mechanic pain test (Randall-Sellitio method), peripheric neuropathy was formed by loose ligating the right sciatic nevre. An identical procedure was performed without ligating on the left side (sham-operation). 15 days after surgical procedure postoperative pain thresholds were determined and saline and drugs were administered via intraperitoneal (i.p) route. Drugs groups were planned as milnacipran (40, 60, 80 mg/kg), Formula I (1-1) (20, 40, 60 mg/kg equivalent of milnacipran), After saline and drug injection, the test was repeated for 2 h in every 30 min. Pain thresholds were given as mean, SEM from % values. Spontaneous locomotor activity was measured by an activity cage and movements were quantified as the total of ambulatory and stereotypic behaviour. Statistical evaluation was made with one way variance analysis (ANOVA) followed by LSD test."}
{"smiles": "CCN(CC)C(=O)[C@]1(c2ccccc2)CC1CNC(=O)CCCC[C@]1(C)CCSS1", "note": "(stereo partly shown) [Formula I (1-1)]", "values": [{"measurement": "antinociceptive effect (pain thresholds)", "result": "more potent antinociceptive effect"}]}
